Measurements from USRE46873E1, “Multi-targeted RNAi therapeutics for scarless wound healing of skin” (Sirnaomics, Inc., priority 2007, dated 2018).
Bridges are numbered along the chain shown (N, C = ends). Roman numbers before positions name the chains, in order. Where no end group is shown, it is not given here.

Key:
lung, liver, and kidney = assay: In vivo toxicity of HK peptides after intravenous administration; settings: mice, 1000 μg, 24 h after injection; preliminary studies
Description: H2K4b, had the strongest antifungal effect reducing growth of C. albicans to nearly 40% at 37.5 μg/ml (3.4 μM) and 85% at 50 μg/ml (4.5 μM). […] Relative to in vitro toxicity, the in vivo toxicity differences among these peptides are more striking. […] Of the three organs examined, the kidney appears to be the most sensitive to these peptides. Relative to H2K4b, a decrease in cationic charge in the terminal branches of H3K4b and H3K(G)K4b may, in part, account for their reduced toxicity in vitro and in vivo; the reduction in charge may decrease their interaction with negatively charged cell membranes. With eight additional glycines, H3K(G)4b polymer has a reduced charge per total number of amino acids relative to H3K4b. Because there are five lysines in each terminal arm of H3K(G)4b and H3K4b, however, we doubt that minimal charge differences readily explain the reduced toxicity of H3K(G)4b relative to H3K4b. An alternative possibility is that glycines may disrupt alpha helices in the terminal branches, thereby enhancing the flexibility of the polymer and allowing enzymatic degradation. Several secondary structure programs for peptides predict a marked difference in the alpha helical content between a glycine containing peptide, H3K(G)4b, and the non-glycine containing peptides, H2K4b and H3K4b.

TGF-β1 mRNA in PC3 cells = assay: siRNA transfection of PC3 cells, RT-PCR of TGF-beta1; format: cell-based; settings: human PC3 cells
Description: (§1) • 4. Human prostate carcinoma cell-PC3 was used for detection of the gene expression knockdown. A series of standard transfection experiments were carried out using the protocol provided by the vendor (Invitrogen) with the siRNA duplexes identified in step 2 accordingly. • 5. Total RNA samples were isolated and subjected to RT-PCR analysis using the respective PCR primers identified in step 3 above.
(§2) Among ten in silico designed 25 mer siRNA sequences, we first pick three for testing. Before testing those siRNA oligos (synthesized by Qiagen) in the corresponding cells, such as human PC-3 cell (a bone metastasis of a […] prostatic adenocarcinoma), we first use RT-PCR to survey the presence of the target gene expression in the total RNA samples (FIG. 14). […] We further surveyed the expression of these three genes in the mouse C166 cell. […] Therefore, we can transfect the three selected siRNA oligos targeting a particular gene into the corresponding cell and then evaluate their gene silencing potential, followed by total RNA isolation and RT-PCR analysis. Three doses were used for each transfection on the 6-well plate: 0.5 ug, 1 ug and 2 ug, with Lipo2000 following the vendor's direction. […] The RT-PCR products were also subjected to the gel electrophoreses and quantification. […]

Cox-2 mRNA in PC3 cells = assay: siRNA transfection of PC3 cells, RT-PCR of Cox-2; format: cell-based; settings: human PC3 cells
Description: as §1, §2

Hoxb13 mRNA in PC3 cells = assay: siRNA transfection of PC3 cells, RT-PCR of Hoxb13; format: cell-based; settings: human PC3 cells
Description: as §1, §2

I: KHHHKHHHKHHHKHHHKKKK-NH2 / II: KHHHKHHHKHHHKHHHK / III: KHHHKHHHKHHHKHHHK / IV: KHHHKHHHKHHHKHHHK (amide I:18-IV:C, I:19-III:C, I:20-II:C) [H3K4b]
organ toxicity (lung, liver, and kidney): minimally toxic to the kidney

hmTF-2: 25-mer siRNA duplex targeting human and mouse TGF-β1; sense 5′-CCCAAGGGCUACCAUGCCAACUUCU-3′ (SEQ ID NO: 11) (antisense AGAAGUUGGCAUGGUAGCCCUUGGG; listed as RNA, further chemistry not given here)
TGF-β1 gene expression / silencing activity (RT-PCR) (TGF-β1 mRNA in PC3 cells): potent

hmCX-1: 25-mer siRNA duplex targeting human and mouse COX-2; sense 5′-GGUCUGGUGCCUGGUCUGAUGAUGU-3′ (SEQ ID NO: 9) (antisense ACAUCAUCAGACCAGGCACCAGACC; listed as RNA, further chemistry not given here)
Cox-2 gene expression / silencing activity (RT-PCR) (Cox-2 mRNA in PC3 cells): potent

hmHX-1: 25-mer siRNA duplex targeting human and mouse HoxB13; sense 5′-GGUGGCUGGAACAGCCAGAUGUGUU-3′ (SEQ ID NO: 7) (antisense AACACAUCUGGCUGUUCCAGCCACC; listed as RNA, further chemistry not given here)
Hoxb13 gene expression / silencing activity (RT-PCR) (Hoxb13 mRNA in PC3 cells): potent
